Experimental data published in ChEMBL document CHEMBL5149992, “Discovery, Optimization, and Evaluation of Quinazolinone Derivatives with Novel Linkers as Orally Efficacious Phosphoinositide-3-Kinase Delta Inhibitors for Treatment of Inflammatory Diseases” (J Med Chem, 2021).
The source made the active and inactive calls. The rule behind the calls is not given here.

Legend:
[1] = MRT in Sprague-Dawley rat at 5 mg/kg, po incubated for 5 to 24 hrs by LC-MS/MS analysis; assay type: ADME, organism-based; details: in vivo, time 5-24 hrs
[2] = Oral bioavailability Sprague-Dawley rat at 5 mg/kg incubated for 5 to 24 hrs by LC-MS/MS analysis; assay type: ADME, organism-based; details: in vivo, time 5-24 hrs
HEK293 = assay: Cytotoxicity against HEK293 cells assessed as reduction in cell viability incubated for 72 hrs by CCK-8 assay; assay type: toxicity, cell-based; details: human, hek293, 72 h
[3] = molecular target: Phosphatidylinositol 4,5-bisphosphate 3-kinase catalytic subunit gamma isoform (Mus musculus, UniProt Q9JHG7); assay: Inhibition of PI3Kgamma in c5a-stimulated mouse RAW264.7 cells assessed as reduction in AKT phosphorylation at S473 residue incubated for 30 mins; assay type: cell-based
Sequence of Phosphatidylinositol 4,5-bisphosphate 3-kinase catalytic subunit gamma isoform (Mus musculus, UniProt Q9JHG7) (Q9JHG7 whole entry, canonical isoform): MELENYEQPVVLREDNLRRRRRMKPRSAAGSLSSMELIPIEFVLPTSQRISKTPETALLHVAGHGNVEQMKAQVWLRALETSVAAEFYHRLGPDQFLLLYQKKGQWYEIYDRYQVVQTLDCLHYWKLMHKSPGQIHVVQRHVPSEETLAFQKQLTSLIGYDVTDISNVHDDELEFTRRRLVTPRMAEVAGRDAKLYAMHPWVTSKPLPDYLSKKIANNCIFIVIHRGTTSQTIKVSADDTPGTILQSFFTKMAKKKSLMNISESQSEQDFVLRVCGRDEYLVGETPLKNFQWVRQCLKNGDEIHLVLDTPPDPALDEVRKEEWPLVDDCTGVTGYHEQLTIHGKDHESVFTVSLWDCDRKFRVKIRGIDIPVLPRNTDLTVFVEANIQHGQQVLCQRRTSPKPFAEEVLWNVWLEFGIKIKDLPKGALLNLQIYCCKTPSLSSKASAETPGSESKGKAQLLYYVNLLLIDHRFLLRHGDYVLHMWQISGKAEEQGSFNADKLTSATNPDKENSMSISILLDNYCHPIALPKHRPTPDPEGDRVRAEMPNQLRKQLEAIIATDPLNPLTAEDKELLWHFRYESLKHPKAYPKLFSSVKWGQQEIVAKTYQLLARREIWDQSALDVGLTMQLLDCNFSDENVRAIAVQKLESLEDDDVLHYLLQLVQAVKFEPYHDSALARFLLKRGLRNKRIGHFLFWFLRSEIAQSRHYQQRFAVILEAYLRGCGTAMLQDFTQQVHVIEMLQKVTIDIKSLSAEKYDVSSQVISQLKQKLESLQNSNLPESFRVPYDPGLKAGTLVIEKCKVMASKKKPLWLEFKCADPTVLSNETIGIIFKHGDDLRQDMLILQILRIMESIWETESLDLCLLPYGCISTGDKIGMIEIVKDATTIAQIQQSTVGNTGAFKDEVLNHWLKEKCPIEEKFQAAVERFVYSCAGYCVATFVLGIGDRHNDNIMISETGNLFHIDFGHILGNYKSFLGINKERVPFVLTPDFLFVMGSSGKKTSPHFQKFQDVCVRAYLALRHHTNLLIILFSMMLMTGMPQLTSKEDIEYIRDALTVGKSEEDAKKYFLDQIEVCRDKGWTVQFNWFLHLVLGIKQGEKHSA

[4] = Tmax in Sprague-Dawley rat at 5 mg/kg, po incubated for 5 to 24 hrs by LC-MS/MS analysis; assay type: ADME, organism-based; details: in vivo, time 5-24 hrs
[5] = AUC in Sprague-Dawley rat at 5 mg/kg, iv incubated for 5 to 24 hrs by LC-MS/MS analysis; assay type: ADME, organism-based; set-up: time 5-24 hrs, dose 5 mg/kg, route iv; details: in vivo
[6] = Volume of distribution at steady state in Sprague-Dawley rat at 5 mg/kg, iv incubated for 5 to 24 hrs by LC-MS/MS analysis; assay type: ADME, organism-based; details: in vivo, time 5-24 hrs, read-out: Vdss
[7] = molecular target: T1, Phosphatidylinositol 4,5-bisphosphate 3-kinase catalytic subunit beta isoform (Homo sapiens, UniProt P42338); assay: Inhibition of PI3Kbeta (unknown origin)
T1 sequence (P42338 whole entry, canonical isoform): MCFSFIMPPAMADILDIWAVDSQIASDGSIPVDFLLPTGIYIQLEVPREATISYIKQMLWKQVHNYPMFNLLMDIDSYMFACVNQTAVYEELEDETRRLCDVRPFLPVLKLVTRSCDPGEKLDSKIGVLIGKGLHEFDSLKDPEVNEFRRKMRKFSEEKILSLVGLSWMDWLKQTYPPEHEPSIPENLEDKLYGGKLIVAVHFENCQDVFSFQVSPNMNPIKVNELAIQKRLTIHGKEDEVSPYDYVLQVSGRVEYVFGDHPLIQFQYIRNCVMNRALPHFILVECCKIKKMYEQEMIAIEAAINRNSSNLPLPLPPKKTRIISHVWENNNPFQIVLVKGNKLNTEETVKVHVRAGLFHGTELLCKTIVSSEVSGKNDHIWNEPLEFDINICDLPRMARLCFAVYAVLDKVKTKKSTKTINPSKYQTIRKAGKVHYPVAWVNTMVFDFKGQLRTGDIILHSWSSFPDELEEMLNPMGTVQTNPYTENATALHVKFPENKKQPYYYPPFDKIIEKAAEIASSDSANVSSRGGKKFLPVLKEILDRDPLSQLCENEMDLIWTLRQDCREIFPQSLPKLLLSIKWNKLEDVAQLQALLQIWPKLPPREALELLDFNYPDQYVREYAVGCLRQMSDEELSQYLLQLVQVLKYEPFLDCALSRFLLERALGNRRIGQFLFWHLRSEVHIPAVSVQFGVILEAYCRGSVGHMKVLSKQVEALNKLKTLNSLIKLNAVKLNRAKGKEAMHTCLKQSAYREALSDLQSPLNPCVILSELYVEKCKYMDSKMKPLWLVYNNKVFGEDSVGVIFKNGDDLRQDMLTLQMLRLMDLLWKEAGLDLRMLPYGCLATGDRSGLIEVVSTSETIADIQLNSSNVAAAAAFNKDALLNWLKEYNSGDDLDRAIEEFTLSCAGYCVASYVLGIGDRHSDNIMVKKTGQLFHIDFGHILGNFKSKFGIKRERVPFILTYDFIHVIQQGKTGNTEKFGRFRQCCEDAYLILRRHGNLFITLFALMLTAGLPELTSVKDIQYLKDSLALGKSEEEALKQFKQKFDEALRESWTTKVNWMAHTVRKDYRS

[8] = molecular target: T2, Phosphatidylinositol 4,5-bisphosphate 3-kinase catalytic subunit alpha isoform (Homo sapiens, UniProt P42336); assay: Inhibition of PI3Kalpha in human SK-OV-3 cells assessed as reduction in AKT phosphorylation at S473 residue incubated for 30 mins; assay type: cell-based
T2 sequence (P42336 whole entry, canonical isoform): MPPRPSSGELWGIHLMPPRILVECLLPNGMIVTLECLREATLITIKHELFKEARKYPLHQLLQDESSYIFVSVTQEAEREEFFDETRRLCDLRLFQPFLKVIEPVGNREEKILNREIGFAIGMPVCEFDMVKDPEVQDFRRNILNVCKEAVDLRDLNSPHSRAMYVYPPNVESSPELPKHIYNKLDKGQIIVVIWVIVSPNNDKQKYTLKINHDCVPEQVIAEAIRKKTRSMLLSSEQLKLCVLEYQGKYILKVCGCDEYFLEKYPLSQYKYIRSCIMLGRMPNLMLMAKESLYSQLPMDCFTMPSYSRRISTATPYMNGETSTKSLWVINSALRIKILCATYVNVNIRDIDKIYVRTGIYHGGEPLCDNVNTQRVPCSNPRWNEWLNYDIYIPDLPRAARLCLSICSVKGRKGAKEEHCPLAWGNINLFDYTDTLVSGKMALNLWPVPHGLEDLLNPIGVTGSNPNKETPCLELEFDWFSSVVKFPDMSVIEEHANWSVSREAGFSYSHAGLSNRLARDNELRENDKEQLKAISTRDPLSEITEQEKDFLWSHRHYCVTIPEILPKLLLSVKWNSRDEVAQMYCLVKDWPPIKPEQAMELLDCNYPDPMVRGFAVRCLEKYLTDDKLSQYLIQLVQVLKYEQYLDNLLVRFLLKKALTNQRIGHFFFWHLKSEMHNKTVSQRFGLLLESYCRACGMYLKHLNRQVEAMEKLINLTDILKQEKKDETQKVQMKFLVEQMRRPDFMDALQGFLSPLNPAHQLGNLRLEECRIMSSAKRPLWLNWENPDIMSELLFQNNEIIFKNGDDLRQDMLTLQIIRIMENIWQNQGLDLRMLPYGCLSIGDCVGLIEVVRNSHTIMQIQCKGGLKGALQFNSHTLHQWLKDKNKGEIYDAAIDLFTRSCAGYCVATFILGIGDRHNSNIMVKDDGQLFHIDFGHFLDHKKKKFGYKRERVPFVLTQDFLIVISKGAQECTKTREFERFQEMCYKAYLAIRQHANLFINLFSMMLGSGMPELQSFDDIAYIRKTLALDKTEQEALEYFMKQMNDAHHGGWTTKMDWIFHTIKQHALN

[9] = molecular target: T3, Phosphatidylinositol 4,5-bisphosphate 3-kinase catalytic subunit delta isoform (Homo sapiens, UniProt O00329); assay: Inhibition of PI3Kdelta (unknown origin)
T3 sequence (O00329 whole entry): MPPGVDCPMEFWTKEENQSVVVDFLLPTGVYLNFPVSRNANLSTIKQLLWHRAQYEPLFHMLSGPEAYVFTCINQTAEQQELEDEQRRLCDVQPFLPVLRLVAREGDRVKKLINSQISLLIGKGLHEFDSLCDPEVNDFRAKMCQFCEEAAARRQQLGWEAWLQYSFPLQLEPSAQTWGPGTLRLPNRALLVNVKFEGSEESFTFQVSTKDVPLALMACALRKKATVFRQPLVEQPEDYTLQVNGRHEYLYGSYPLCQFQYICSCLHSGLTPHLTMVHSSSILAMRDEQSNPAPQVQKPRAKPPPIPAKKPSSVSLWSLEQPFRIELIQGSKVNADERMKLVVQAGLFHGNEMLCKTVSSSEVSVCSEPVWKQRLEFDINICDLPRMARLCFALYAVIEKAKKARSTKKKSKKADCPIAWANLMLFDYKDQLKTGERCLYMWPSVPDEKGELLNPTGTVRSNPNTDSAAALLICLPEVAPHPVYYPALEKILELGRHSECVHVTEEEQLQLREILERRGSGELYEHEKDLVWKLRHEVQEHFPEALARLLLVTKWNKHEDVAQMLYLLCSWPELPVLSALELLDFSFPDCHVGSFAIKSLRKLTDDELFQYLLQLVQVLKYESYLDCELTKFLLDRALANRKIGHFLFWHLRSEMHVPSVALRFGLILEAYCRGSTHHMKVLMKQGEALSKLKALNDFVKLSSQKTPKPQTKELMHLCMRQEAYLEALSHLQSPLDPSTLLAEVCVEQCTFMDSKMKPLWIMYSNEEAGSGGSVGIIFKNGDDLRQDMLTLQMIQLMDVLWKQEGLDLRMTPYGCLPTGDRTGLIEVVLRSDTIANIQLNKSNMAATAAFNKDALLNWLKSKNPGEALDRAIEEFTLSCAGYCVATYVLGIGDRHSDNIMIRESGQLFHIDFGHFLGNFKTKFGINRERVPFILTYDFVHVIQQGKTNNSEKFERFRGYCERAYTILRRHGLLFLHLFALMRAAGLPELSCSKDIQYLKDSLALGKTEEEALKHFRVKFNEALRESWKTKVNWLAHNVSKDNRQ

[10] = AUC in Sprague-Dawley rat at 5 mg/kg, po incubated for 5 to 24 hrs by LC-MS/MS analysis; assay type: ADME, organism-based; set-up: dose 5 mg/kg, time upper 24 hrs, time lower 5 hrs, route po; details: in vivo
in vitro = details: human, liver microsomes
[11] = Elimination half life in Sprague-Dawley rat at 5 mg/kg, iv incubated for 5 to 24 hrs by LC-MS/MS analysis; assay type: ADME, organism-based; details: in vivo, time 5-24 hrs, read-out: beta t1/2 (converted)
L02 = assay: Cytotoxicity against human L02 cells assessed as reduction in cell viability incubated for 72 hrs by CCK-8 assay; assay type: toxicity, cell-based; details: l02, 72 h
[12] = Volume of distribution at steady state in Sprague-Dawley rat at 5 mg/kg, po incubated for 5 to 24 hrs by LC-MS/MS analysis; assay type: ADME, organism-based; details: in vivo, time 5-24 hrs
[13] = human, microsomes, 10 µM
[14] = molecular target: T3, Phosphatidylinositol 4,5-bisphosphate 3-kinase catalytic subunit delta isoform; assay: Inhibition of PI3Kdelta in anti-IgM-stimulated human whole blood B cell degranulation incubated for 60 mins by flow cytometry; assay type: tissue-based
Mus musculus [15] = assay: Antiarthritic activity against collagen-induced arthritis DBA1/J mouse model assessed as paw swelling of forelimb at 5 to 20 mg/kg, po measured on day 27; assay type: functional, organism-based; details: dose 5-20 mg/kg, time 27.0 day
[16] = MRT in Sprague-Dawley rat at 5 mg/kg, iv incubated for 5 to 24 hrs by LC-MS/MS analysis; assay type: ADME, organism-based; details: in vivo, time 5-24 hrs
Mus musculus [17] = assay: Antiarthritic activity against collagen-induced arthritis DBA1/J mouse model assessed as destruction of cartilage at 20 mg/kg, po measured after 24 hrs by Safranin-O staining based microscopic analysis; assay type: functional, organism-based
Mus musculus [18] = assay: Antiarthritic activity against collagen-induced arthritis DBA1/J mouse model assessed as signs of inflammation at 20 mg/kg, po measured after 24 hrs by H and E staining based analysis; assay type: functional, organism-based
[19] = Elimination half life in Sprague-Dawley rat at 5 mg/kg, po incubated for 5 to 24 hrs by LC-MS/MS analysis; assay type: ADME, organism-based; details: in vivo, time 5-24 hrs, read-out: beta t1/2 (converted)
H9c2 = assay: Cytotoxicity against rat H9c2 cells assessed as reduction in cell viability incubated for 72 hrs by CCK-8 assay; assay type: toxicity, cell-based; details: h9c2, 72 h
[20] = molecular target: Phosphatidylinositol 4,5-bisphosphate 3-kinase catalytic subunit gamma isoform (Homo sapiens, UniProt P48736); assay: Inhibition of PI3Kgamma (unknown origin)
Sequence of Phosphatidylinositol 4,5-bisphosphate 3-kinase catalytic subunit gamma isoform (Homo sapiens, UniProt P48736) (P48736 whole entry, canonical isoform): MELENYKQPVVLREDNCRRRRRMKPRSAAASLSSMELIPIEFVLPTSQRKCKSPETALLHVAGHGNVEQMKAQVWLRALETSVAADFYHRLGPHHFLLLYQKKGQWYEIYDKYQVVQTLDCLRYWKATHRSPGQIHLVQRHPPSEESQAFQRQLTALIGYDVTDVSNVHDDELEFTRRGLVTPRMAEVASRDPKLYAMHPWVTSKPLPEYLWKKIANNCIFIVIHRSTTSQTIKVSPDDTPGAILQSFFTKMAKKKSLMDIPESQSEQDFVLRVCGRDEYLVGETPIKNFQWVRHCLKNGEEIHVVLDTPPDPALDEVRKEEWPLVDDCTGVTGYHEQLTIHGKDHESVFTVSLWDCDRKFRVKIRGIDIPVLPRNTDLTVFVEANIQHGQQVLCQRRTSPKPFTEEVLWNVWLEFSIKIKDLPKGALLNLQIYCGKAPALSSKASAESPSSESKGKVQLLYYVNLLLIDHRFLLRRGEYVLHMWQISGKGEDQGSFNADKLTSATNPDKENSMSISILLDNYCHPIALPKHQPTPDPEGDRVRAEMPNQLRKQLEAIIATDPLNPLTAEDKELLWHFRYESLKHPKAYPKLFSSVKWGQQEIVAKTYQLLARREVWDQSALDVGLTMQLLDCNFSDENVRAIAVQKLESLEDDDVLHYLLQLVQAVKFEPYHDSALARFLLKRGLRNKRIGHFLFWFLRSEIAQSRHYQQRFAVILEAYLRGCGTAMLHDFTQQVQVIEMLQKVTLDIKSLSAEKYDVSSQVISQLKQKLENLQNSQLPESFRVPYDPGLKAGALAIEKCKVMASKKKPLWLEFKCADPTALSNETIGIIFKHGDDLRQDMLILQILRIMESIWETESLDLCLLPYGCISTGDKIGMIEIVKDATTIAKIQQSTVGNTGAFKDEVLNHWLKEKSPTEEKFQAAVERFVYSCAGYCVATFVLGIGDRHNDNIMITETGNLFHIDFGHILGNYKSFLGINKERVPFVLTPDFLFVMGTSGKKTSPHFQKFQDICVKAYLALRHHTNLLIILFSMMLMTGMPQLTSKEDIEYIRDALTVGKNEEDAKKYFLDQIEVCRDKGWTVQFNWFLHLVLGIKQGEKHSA

[21] = Tmax in Sprague-Dawley rat at 5 mg/kg, iv incubated for 5 to 24 hrs by LC-MS/MS analysis; assay type: ADME, organism-based; details: in vivo, time 5-24 hrs
[22] = molecular target: T3, Phosphatidylinositol 4,5-bisphosphate 3-kinase catalytic subunit delta isoform; assay: Inhibition of PI3Kdelta in anti-IgM-stimulated human Raji cells assessed as reduction in AKT phosphorylation at S473 residue incubated for 30 mins; assay type: cell-based
L929 = assay: Cytotoxicity against mouse L929 cells assessed as reduction in cell viability incubated for 72 hrs by CCK-8 assay; assay type: toxicity, cell-based; details: l929, 72 h
Mus musculus [23] = assay: Antiarthritic activity in collagen-induced rheumatoid arthritis po dosed DBA1/J mouse model assessed as reduction in disease severity measured once daily for 24 to 27 days; assay type: functional, organism-based; details: dose 5-20 mg/kg, time 24-27 day, DDE = dose-dependent effect
[24] = molecular target: T2, Phosphatidylinositol 4,5-bisphosphate 3-kinase catalytic subunit alpha isoform; assay: Inhibition of PI3Kalpha (unknown origin)
[25] = molecular target: T1, Phosphatidylinositol 4,5-bisphosphate 3-kinase catalytic subunit beta isoform; assay: Inhibition of PI3Kbeta in human 786-0 cells assessed as reduction in AKT phosphorylation at S473 residue incubated for 30 mins; assay type: cell-based
Mus musculus [26] = assay: Antiarthritic activity against collagen-induced arthritis DBA1/J mouse model assessed as paw swelling of hindlimb at 5 to 20 mg/kg, po measured on day 27; assay type: functional, organism-based; details: dose 5-20 mg/kg, time 27.0 day
Mus musculus [27] = assay: Antiarthritic activity against collagen-induced arthritis DBA1/J mouse model assessed as bone erosion at 20 mg/kg, po measured after 24 hrs by H and E staining based analysis; assay type: functional, organism-based

## C[C@H]1CC[C@@H](c2nc3cccc(Cl)c3c(=O)n2-c2cccc(F)c2)N1c1ncnc2[nH]cnc12
[1]
  MRT: 5.96 h
[2]
  F: 89.9%
HEK293
  Activity: Non-Toxic
[3]
  IC50: 571 nM
[4]
  Tmax: 4.67 h
[5]
  AUC: 2110.52 µg·h/L
[6]
  Vd: 7.16 L/kg
[7]
  IC50: 375 nM
[8]
  IC50: 4.36 µM
[9]
  IC50: 14 nM
[10]
  AUC: 4.89774 µg·h/mL
In vitro
  half-life at 60 h, 10 µM: 266 min
[11]
  half-life: 120 min
L02
  Activity: Non-Toxic
[12]
  Vdss: 9.1 L/kg
[13]
  CLH: 5.2 mL/min/g
[14]
  IC50: 100 nM
Mus musculus [15]
  Activity: Active
[16]
  MRT: 2.53 h
Mus musculus [17]
  Activity: Active
Mus musculus [18]
  Activity: Active
[19]
  half-life: 124 min
H9c2
  Activity: Non-Toxic
[20]
  IC50: 267 nM
[21]
  Tmax: 4.8 min
[22]
  IC50: 24.7 nM
L929
  Activity: Non-Toxic
Mus musculus [23]
  Activity: Dde
[24]
  IC50: 4.43 µM
[25]
  IC50: 943 nM
Mus musculus [26]
  Activity: Active
Mus musculus [27]
  Activity: Active
